In patent US11970497B2, “Tricyclic AKR1C3 dependent KARS inhibitors” (Novartis AG, priority 2019, dated 2024):

What was measured:
[1] = tested on: H460 (NRF2 pathway mutant cell line with high AKR1C3 expression); assay: In vitro cell proliferation assay (CellTiter-Glo), H460; type: cell-based; conditions: Homo sapiens, NCI-H460, 72 h; H460 cells, 3 days, CellTiter-Glo, top concentration 10 μM; read-out: H460 Qualified absolute AC50
From the text: (§1) Cellular Proliferation Assay to Assess Compounds Activity in H460 (NRF2 Pathway Mutant Cell Line with High AKR1C3 Expression) and Hara (NRF2 Pathway Wild Type Cell Line with Low AKR1C3 Expression).
(§2) The cell lines A549 and H460 are NRF2 pathway mutant and specifically contain genetic alterations in KEAP1 (A549: G333C, H460: D236H) (Singh A. et al., 2006 PLoS Medicine 3(10) e420). In these cell lines the NRF2 pathway is constitutively active and these cells express high levels of NRF2 protein and NRF2 pathway target gene AKR1C3. […] They have low AKR1C3 expression.
(§3) In Vitro Cell Proliferation Assay
(§4) Day 1, for H460 800 cells/well or 40 μL of 2×10^4 cells/mL and for Hara 2000 cells/well or 40 μL of 5×10^4 cells/mL medium (RPMI-1640 supplemented with 10% fetal bovine serum and 1% penicillin/streptomycin) were seeded into 384-well tissue culture plates. Day 2, compounds were serially diluted 1:5 to generate 8 point dose response curves and added to cells for a final top concentration of 10 μM. DMSO (1%) control and MG132 (30 μM) controls are added in columns 23 and 24 respectively on each plate for positive and negative control. After incubation for 3 days at 37° C./5% CO2, 30 μl of CellTiter-Glo reagent (Promega) was added and the plates were incubated for 10 min on plate shaker. The amount of luminescence was determined using a Perkin Elmer Envision plate reader. CellTiter-Glo luminescence values of cells treated with DMSO and MG132 controls were used to normalize the data and calculate percentage activity and AC50s of compounds using the Helios Software suite.

[2] = tested on: Hara (NRF2 pathway wild type cell line with low AKR1C3 expression); assay: In vitro cell proliferation assay (CellTiter-Glo), Hara; type: cell-based; conditions: 72 h; Hara cells, 3 days, CellTiter-Glo, top concentration 10 μM; read-out: HARA Qualified absolute AC50
From the text: as §1, §2, §3, §4

Structure (SMILES)	AC50 [1] [nM]	AC50 [2] [µM]
COc1cc(F)ccc1CNC(=O)N1CCC2(CC1)CC(O)c1cc(F)ccc1N2 (racemic) [Example 168, 6′-fluoro-N-(4-fluoro-2-methoxybenzyl)-4′-hydroxy-3′,4′-dihydro-1′H-spiro[piperidine-4,2′-quinoline]-1-carboxamide]	41	0.049
CN1c2ccc(F)cc2[C@@H](O)CC12CCN(C(=O)NCc1ccc(F)cc1)CC2 (single isomer, unassigned) [Example 151b]	3400	6.07
O=C(NCc1ccc(F)cc1O)N1CCC2(CC1)C[C@H](O)c1cc(F)ccc1N2 (single isomer, unassigned) [Example 154b]	464	0.749
COc1cc(F)ccc1CNC(=O)N1CCC2(CC1)CC(=O)c1cc(F)ccc1N2C [Example 2, 6′-fluoro-N-(4-fluoro-2-methoxybenzyl)-1′-methyl-4′-oxo-3′,4′-dihydro-1′H-spiro[piperidine-4,2′-quinoline]-1-carboxamide]	5	> 10
CN1c2ccc(F)cc2C(=O)CC12CCN(C(=O)NCc1ccc(F)c(OCCO)c1)CC2 [Example 3, 6′-fluoro-N-(4-fluoro-3-(2-hydroxyethoxy)benzyl)-1′-methyl-4′-oxo-3′,4′-dihydro-1′H-spiro[piperidine-4,2′-quinoline]-1-carboxamide]	5	1.76
CN1c2ccc(F)cc2C(=O)CC12CCN(C(=O)NCc1ccc(F)cc1F)CC2 [Example 5, N-(2,4-difluorobenzyl)-6′-fluoro-1′-methyl-4′-oxo-3′,4′-dihydro-1′H-spiro[piperidine-4,2′-quinoline]-1-carboxamide]	8	> 10
CCN1c2ccc(F)cc2C(=O)CC12CCN(C(=O)NCc1ccc(F)cc1)CC2 [Example 6, 1′-ethyl-6′-fluoro-N-(4-fluorobenzyl)-4′-oxo-3′,4′-dihydro-1′H-spiro[piperidine-4,2′-quinoline]-1-carboxamide]	9	> 10
COc1cc(CNC(=O)N2CCC3(CC2)CC(=O)c2cc(F)ccc2N3C)ccc1F [Example 8, 6′-fluoro-N-(4-fluoro-3-methoxybenzyl)-1′-methyl-4′-oxo-3′,4′-dihydro-1′H-spiro[piperidine-4,2′-quinoline]-1-carboxamide]	15	> 10
Cc1occc1CNC(=O)N1CCC2(CC1)CC(=O)c1cc(F)cc(F)c1N2 [Example 10, 6′,8′-difluoro-N-((2-methylfuran-3-yl)methyl)-4′-oxo-3′,4′-dihydro-1′H-spiro[piperidine-4,2′-quinoline]-1-carboxamide]	21	5.41
NC(=O)c1cc(CNC(=O)N2CCC3(CC2)CC(=O)c2cc(F)cc(F)c2N3)ccc1F [Example 11, N-(3-carbamoyl-4-fluorobenzyl)-6′,8′-difluoro-4′-oxo-3′,4′-dihydro-1′H-spiro[piperidine-4,2′-quinoline]-1-carboxamide]	23	> 10
[2H]C([2H])(NC(=O)N1CCC2(CC1)CC(=O)c1cc(F)ccc1N2)c1ccc(F)cc1 [Example 12, 6′-fluoro-N-((4-fluorophenyl)methyl-d2)-4′-oxo-3′,4′-dihydro-1′H-spiro[piperidine-4,2′-quinoline]-1-carboxamide]	24	> 10
CCN1c2ccc(F)cc2C(=O)CC12CCN(C(=O)NCc1ccc(F)c(C(N)=O)c1)CC2 [Example 13, N-(3-carbamoyl-4-fluorobenzyl)-1′-ethyl-6′-fluoro-4′-oxo-3′,4′-dihydro-1′H-spiro[piperidine-4,2′-quinoline]-1-carboxamide]	25	7.95
COCCN1c2ccc(F)cc2C(=O)CC12CCN(C(=O)NCc1ccc(F)cc1)CC2 [Example 14, 6′-fluoro-N-(4-fluorobenzyl)-1′-(2-methoxyethyl)-4′-oxo-3′,4′-dihydro-1′H-spiro[piperidine-4,2′-quinoline]-1-carboxamide]	29	0.795
O=C1CC2(CCN(C(=O)NCc3ccc(F)c(-c4cnco4)c3)CC2)Nc2ccc(F)cc21 [Example 15, 6′-fluoro-N-(4-fluoro-3-(oxazol-5-yl)benzyl)-4′-oxo-3′,4′-dihydro-1′H-spiro[piperidine-4,2′-quinoline]-1-carboxamide]	29	9.44
O=C1CC2(CCN(C(=O)NCc3ccc(F)cc3F)CC2)Nc2ccc(F)cc21 [Example 16, N-(2,4-difluorobenzyl)-6′-fluoro-4′-oxo-3′,4′-dihydro-1′H-spiro[piperidine-4,2′-quinoline]-1-carboxamide]	29	> 10
CN1c2ccc(F)cc2C(=O)CC12CCN(C(=O)NCc1cc(NCCO)c(F)cc1F)CC2 [Example 17, N-(2,4-difluoro-5-((2-hydroxyethyl)amino)benzyl)-6′-fluoro-1′-methyl-4′-oxo-3′,4′-dihydro-1′H-spiro[piperidine-4,2′-quinoline]-1-carboxamide]	30	> 10
CCN1c2ccc(F)cc2C(=O)CC12CCN(C(=O)NCc1cc(NCCO)c(F)cc1F)CC2 [Example 18, N-(2,4-difluoro-5-((2-hydroxyethyl)amino)benzyl)-1′-ethyl-6′-fluoro-4′-oxo-3′,4′-dihydro-1′H-spiro[piperidine-4,2′-quinoline]-1-carboxamide]	30	4.19
O=C1CC2(CCN(C(=O)NCc3ccc(F)cc3)CC2)N(CCO)c2ccc(F)cc21 [Example 19, 6′-fluoro-N-(4-fluorobenzyl)-1′-(2-hydroxyethyl)-4′-oxo-3′,4′-dihydro-1′H-spiro[piperidine-4,2′-quinoline]-1-carboxamide]	31	0.694
COCCNc1cc(F)ccc1CNC(=O)N1CCC2(CC1)CC(=O)c1cc(F)ccc1N2C [Example 20, 6′-fluoro-N-(4-fluoro-2-((2-methoxyethyl)amino)benzyl)-1′-methyl-4′-oxo-3′,4′-dihydro-1′H-spiro[piperidine-4,2′-quinoline]-1-carboxamide]	33	> 10
COCCOc1cc(CNC(=O)N2CCC3(CC2)CC(=O)c2cc(F)ccc2N3C)ccc1F [Example 21, 6′-fluoro-N-(4-fluoro-3-(2-methoxyethoxy)benzyl)-1′-methyl-4′-oxo-3′,4′-dihydro-1′H-spiro[piperidine-4,2′-quinoline]-1-carboxamide]	34	> 10
CC(C)S(=O)(=O)Nc1cc(CNC(=O)N2CCC3(CC2)CC(=O)c2cc(F)ccc2N3)ccc1F [Example 23, 6′-fluoro-N-(4-fluoro-3-((1-methylethyl)sulfonamido)benzyl)-4′-oxo-3′,4′-dihydro-1′H-spiro[piperidine-4,2′-quinoline]-1-carboxamide]	6900	> 10
NC(=O)c1cc(CNC(=O)N2CCC3(CC2)CC(=O)c2cc(F)ccc2N3)ccc1F [Example 24, N-(3-carbamoyl-4-fluorobenzyl)-6′-fluoro-4′-oxo-3′,4′-dihydro-1′H-spiro[piperidine-4,2′-quinoline]-1-carboxamide]	46	5.94
CCN1c2ccc(F)cc2C(=O)CC12CCN(C(=O)NCc1ccc(F)c(NCCO)c1)CC2 [Example 25, 1′-ethyl-6′-fluoro-N-(4-fluoro-3-((2-hydroxyethyl)amino)benzyl)-4′-oxo-3′,4′-dihydro-1′H-spiro[piperidine-4,2′-quinoline]-1-carboxamide]	47	1.66
CCN1c2ccc(F)cc2C(=O)CC12CCN(C(=O)NCc1ccc(F)c(N)c1F)CC2 [Example 26, N-(3-amino-2,4-difluorobenzyl)-1′-ethyl-6′-fluoro-4′-oxo-3′,4′-dihydro-1′H-spiro[piperidine-4,2′-quinoline]-1-carboxamide]	47	> 10
CN1c2ccc(F)cc2C(=O)CC12CCN(C(=O)NCc1ccc(F)c(N)c1)CC2 [Example 27, N-(3-amino-4-fluorobenzyl)-6′-fluoro-1′-methyl-4′-oxo-3′,4′-dihydro-1′H-spiro[piperidine-4,2′-quinoline]-1-carboxamide]	48	> 10
C#CCNC(=O)c1cc(CNC(=O)N2CCC3(CC2)CC(=O)c2cc(F)ccc2N3)ccc1F [Example 128, 6′-fluoro-N-(4-fluoro-3-(prop-2-yn-1-ylcarbamoyl)benzyl)-4′-oxo-3′,4′-dihydro-1′H-spiro[piperidine-4,2′-quinoline]-1-carboxamide]	1480	
CN1c2ccc(F)cc2C(=O)CC12CCN(C(=O)NCc1ccc(F)c(NCCC(=O)O)c1)CC2 [Example 148, 3-((2-fluoro-5-((6′-fluoro-1′-methyl-4′-oxo-3′,4′-dihydro-1′H-spiro[piperidine-4,2′-quinoline]-1-carboxamido)methyl)phenyl)amino)propanoic acid]	4930	
